Measured values from the supplement of paper PMC10307832.

Key:
Assay in all cases: relative viability (nuclei count vs DMSO), 5 days (fraction); higher = more cells survive
Alpelisib + Olaparib = compound: Cc1nc(NC(=O)N2CCC[C@H]2C(N)=O)sc1-c1ccnc(C(C)(C)C(F)(F)F)c1 [Alpelisib] + O=C(c1cc(Cc2n[nH]c(=O)c3ccccc23)ccc1F)N1CCN(C(=O)C2CC2)CC1 [Olaparib] (partner 8 µM)
How it was run: (§1)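 Lung cancer cell lines, seeded in 1536-well plates, were treated the following day by pin tool with a single drug or with five library-drug doses (not always all listed) in √10 steps on top of a fixed anchor-drug dose. Cells were fixed and nuclei stained in one step after 5 days, and nuclei were counted. Relative viability is the nuclei count for treated wells divided by that for vehicle wells, reported as medians of duplicate plates.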

OSI-027 + Pictilisib = compound: COc1cccc2cc(-c3nc([C@H]4CC[C@H](C(=O)O)CC4)n4ncnc(N)c34)[nH]c12 [OSI-027] + CS(=O)(=O)N1CCN(Cc2cc3nc(-c4cccc5[nH]ncc45)nc(N4CCOCC4)c3s2)CC1 [Pictilisib] (partner 1 µM)
How it was run: as §1

OSI-027 + Lapatinib = compound: COc1cccc2cc(-c3nc([C@H]4CC[C@H](C(=O)O)CC4)n4ncnc(N)c34)[nH]c12 [OSI-027] + CS(=O)(=O)CCNCc1ccc(-c2ccc3ncnc(Nc4ccc(OCc5cccc(F)c5)c(Cl)c4)c3c2)o1 [Lapatinib] (partner 2 µM)
How it was run: as §1

Vemurafenib + Lapatinib = compound: CCCS(=O)(=O)Nc1ccc(F)c(C(=O)c2c[nH]c3ncc(-c4ccc(Cl)cc4)cc23)c1F [Vemurafenib] + CS(=O)(=O)CCNCc1ccc(-c2ccc3ncnc(Nc4ccc(OCc5cccc(F)c5)c(Cl)c4)c3c2)o1 [Lapatinib] (partner 2 µM)
How it was run: as §1

Cell Line: 201T
- relative viability (Alpelisib + Olaparib; first compound 0.04 µM): 0.82
- relative viability (Alpelisib + Olaparib; first compound 0.1265 µM): 0.81
- relative viability (Alpelisib + Olaparib; first compound 0.4 µM): 0.859
- relative viability (Alpelisib + Olaparib; first compound 1.265 µM): 0.774
- relative viability (Alpelisib + Olaparib; first compound 4 µM): 0.679
- relative viability (OSI-027 + Pictilisib; first compound 0.01 µM): 0.688
- relative viability (OSI-027 + Pictilisib; first compound 0.03162 µM): 0.683
- relative viability (OSI-027 + Pictilisib; first compound 0.1 µM): 0.667
- relative viability (OSI-027 + Pictilisib; first compound 0.3162 µM): 0.553
- relative viability (OSI-027 + Pictilisib; first compound 1 µM): 0.541
- relative viability (OSI-027 + Lapatinib; first compound 0.01 µM): 1.05
- relative viability (OSI-027 + Lapatinib; first compound 0.03162 µM): 1.08
- relative viability (OSI-027 + Lapatinib; first compound 0.1 µM): 0.986
- relative viability (OSI-027 + Lapatinib; first compound 0.3162 µM): 0.975
- relative viability (OSI-027 + Lapatinib; first compound 1 µM): 0.957
- relative viability (Vemurafenib + Lapatinib; first compound 0.03162 µM): 0.965
- relative viability (Vemurafenib + Lapatinib; first compound 0.1 µM): 1.02
- relative viability (Vemurafenib + Lapatinib; first compound 0.3162 µM): 1.02
- relative viability (Vemurafenib + Lapatinib; first compound 1 µM): 1.04

Cell Line: A549
- relative viability (Alpelisib + Olaparib; first compound 0.04 µM): 0.301
- relative viability (Alpelisib + Olaparib; first compound 0.4 µM): 0.434
- relative viability (Alpelisib + Olaparib; first compound 1.265 µM): 0.3
- relative viability (Alpelisib + Olaparib; first compound 4 µM): 0.23
- relative viability (OSI-027 + Pictilisib; first compound 0.01 µM): 0.53
- relative viability (OSI-027 + Pictilisib; first compound 0.1 µM): 0.276
- relative viability (OSI-027 + Pictilisib; first compound 0.3162 µM): 0.14
- relative viability (OSI-027 + Pictilisib; first compound 1 µM): 0.142
- relative viability (OSI-027 + Lapatinib; first compound 0.01 µM): 1.1
- relative viability (OSI-027 + Lapatinib; first compound 0.03162 µM): 0.878
- relative viability (OSI-027 + Lapatinib; first compound 0.1 µM): 0.764
- relative viability (OSI-027 + Lapatinib; first compound 0.3162 µM): 0.497
- relative viability (OSI-027 + Lapatinib; first compound 1 µM): 0.314
- relative viability (Vemurafenib + Lapatinib; first compound 0.03162 µM): 0.902
- relative viability (Vemurafenib + Lapatinib; first compound 0.1 µM): 0.964
- relative viability (Vemurafenib + Lapatinib; first compound 0.3162 µM): 1.06
- relative viability (Vemurafenib + Lapatinib; first compound 1 µM): 1.07

Cell Line: A-427
- relative viability (Alpelisib + Olaparib; first compound 0.04 µM): 0.721
- relative viability (Alpelisib + Olaparib; first compound 0.1265 µM): 0.724
- relative viability (Alpelisib + Olaparib; first compound 0.4 µM): 0.762
- relative viability (Alpelisib + Olaparib; first compound 1.265 µM): 0.609
- relative viability (Alpelisib + Olaparib; first compound 4 µM): 0.613
- relative viability (OSI-027 + Pictilisib; first compound 0.01 µM): 0.61
- relative viability (OSI-027 + Pictilisib; first compound 0.03162 µM): 0.664
- relative viability (OSI-027 + Pictilisib; first compound 0.1 µM): 0.699
- relative viability (OSI-027 + Pictilisib; first compound 0.3162 µM): 0.495
- relative viability (OSI-027 + Pictilisib; first compound 1 µM): 0.378
- relative viability (OSI-027 + Lapatinib; first compound 0.01 µM): 1.04
- relative viability (OSI-027 + Lapatinib; first compound 0.03162 µM): 1.16
- relative viability (OSI-027 + Lapatinib; first compound 0.1 µM): 0.927
- relative viability (OSI-027 + Lapatinib; first compound 0.3162 µM): 0.768
- relative viability (OSI-027 + Lapatinib; first compound 1 µM): 0.661
- relative viability (Vemurafenib + Lapatinib; first compound 0.03162 µM): 0.907
- relative viability (Vemurafenib + Lapatinib; first compound 0.1 µM): 1.07
- relative viability (Vemurafenib + Lapatinib; first compound 0.3162 µM): 0.973
- relative viability (Vemurafenib + Lapatinib; first compound 1 µM): 1.04

Cell Line: ABC-1
- relative viability (Alpelisib + Olaparib; first compound 0.04 µM): 0.775
- relative viability (Alpelisib + Olaparib; first compound 0.1265 µM): 0.596
- relative viability (Alpelisib + Olaparib; first compound 0.4 µM): 1.01
- relative viability (Alpelisib + Olaparib; first compound 1.265 µM): 0.885
- relative viability (Alpelisib + Olaparib; first compound 4 µM): 0.804
- relative viability (OSI-027 + Pictilisib; first compound 0.01 µM): 0.627
- relative viability (OSI-027 + Pictilisib; first compound 0.03162 µM): 0.653
- relative viability (OSI-027 + Pictilisib; first compound 0.1 µM): 0.632
- relative viability (OSI-027 + Pictilisib; first compound 0.3162 µM): 0.445
- relative viability (OSI-027 + Pictilisib; first compound 1 µM): 0.319
- relative viability (OSI-027 + Lapatinib; first compound 0.01 µM): 1.33
- relative viability (OSI-027 + Lapatinib; first compound 0.03162 µM): 0.991
- relative viability (OSI-027 + Lapatinib; first compound 0.1 µM): 1.04
- relative viability (OSI-027 + Lapatinib; first compound 0.3162 µM): 0.97
- relative viability (OSI-027 + Lapatinib; first compound 1 µM): 0.553
- relative viability (Vemurafenib + Lapatinib; first compound 0.03162 µM): 1.19
- relative viability (Vemurafenib + Lapatinib; first compound 0.1 µM): 0.991
- relative viability (Vemurafenib + Lapatinib; first compound 0.3162 µM): 1.35
- relative viability (Vemurafenib + Lapatinib; first compound 1 µM): 0.973

Cell Line: BEN
- relative viability (Alpelisib + Olaparib; first compound 0.04 µM): 1.18
- relative viability (Alpelisib + Olaparib; first compound 0.1265 µM): 1.18
- relative viability (Alpelisib + Olaparib; first compound 0.4 µM): 1.22
- relative viability (Alpelisib + Olaparib; first compound 1.265 µM): 1.02
- relative viability (Alpelisib + Olaparib; first compound 4 µM): 0.879
- relative viability (OSI-027 + Pictilisib; first compound 0.01 µM): 0.59
- relative viability (OSI-027 + Pictilisib; first compound 0.03162 µM): 0.472
- relative viability (OSI-027 + Pictilisib; first compound 0.1 µM): 0.371
- relative viability (OSI-027 + Pictilisib; first compound 0.3162 µM): 0.328
- relative viability (OSI-027 + Pictilisib; first compound 1 µM): 0.272
- relative viability (OSI-027 + Lapatinib; first compound 0.01 µM): 0.626
- relative viability (OSI-027 + Lapatinib; first compound 0.03162 µM): 0.529
- relative viability (OSI-027 + Lapatinib; first compound 0.1 µM): 0.419
- relative viability (OSI-027 + Lapatinib; first compound 0.3162 µM): 0.355
- relative viability (OSI-027 + Lapatinib; first compound 1 µM): 0.281
- relative viability (Vemurafenib + Lapatinib; first compound 0.03162 µM): 0.765
- relative viability (Vemurafenib + Lapatinib; first compound 0.1 µM): 0.77
- relative viability (Vemurafenib + Lapatinib; first compound 0.3162 µM): 0.323
- relative viability (Vemurafenib + Lapatinib; first compound 1 µM): 0.525

Cell Line: CAL-12T
- relative viability (Alpelisib + Olaparib; first compound 0.04 µM): 0.771
- relative viability (Alpelisib + Olaparib; first compound 0.1265 µM): 0.774
- relative viability (Alpelisib + Olaparib; first compound 0.4 µM): 0.767
- relative viability (Alpelisib + Olaparib; first compound 1.265 µM): 0.726
- relative viability (Alpelisib + Olaparib; first compound 4 µM): 0.745
- relative viability (OSI-027 + Pictilisib; first compound 0.01 µM): 0.401
- relative viability (OSI-027 + Pictilisib; first compound 0.03162 µM): 0.394
- relative viability (OSI-027 + Pictilisib; first compound 0.1 µM): 0.315
- relative viability (OSI-027 + Pictilisib; first compound 0.3162 µM): 0.299
- relative viability (OSI-027 + Pictilisib; first compound 1 µM): 0.294
- relative viability (OSI-027 + Lapatinib; first compound 0.01 µM): 0.648
- relative viability (OSI-027 + Lapatinib; first compound 0.03162 µM): 0.589
- relative viability (OSI-027 + Lapatinib; first compound 0.1 µM): 0.499
- relative viability (OSI-027 + Lapatinib; first compound 0.3162 µM): 0.375
- relative viability (OSI-027 + Lapatinib; first compound 1 µM): 0.418
- relative viability (Vemurafenib + Lapatinib; first compound 0.03162 µM): 0.63
- relative viability (Vemurafenib + Lapatinib; first compound 1 µM): 0.618

Cell Line: COR-L23
- relative viability (Alpelisib + Olaparib; first compound 0.04 µM): 0.327
- relative viability (Alpelisib + Olaparib; first compound 0.1265 µM): 0.338
- relative viability (Alpelisib + Olaparib; first compound 0.4 µM): 0.573
- relative viability (Alpelisib + Olaparib; first compound 1.265 µM): 0.294
- relative viability (Alpelisib + Olaparib; first compound 4 µM): 0.253
- relative viability (OSI-027 + Pictilisib; first compound 0.01 µM): 0.834
- relative viability (OSI-027 + Pictilisib; first compound 0.03162 µM): 0.877
- relative viability (OSI-027 + Pictilisib; first compound 0.1 µM): 0.668
- relative viability (OSI-027 + Pictilisib; first compound 0.3162 µM): 0.459
- relative viability (OSI-027 + Pictilisib; first compound 1 µM): 0.171
- relative viability (OSI-027 + Lapatinib; first compound 0.01 µM): 0.887
- relative viability (OSI-027 + Lapatinib; first compound 0.03162 µM): 1.2
- relative viability (OSI-027 + Lapatinib; first compound 0.1 µM): 0.744
- relative viability (OSI-027 + Lapatinib; first compound 0.3162 µM): 1
- relative viability (OSI-027 + Lapatinib; first compound 1 µM): 0.34
- relative viability (Vemurafenib + Lapatinib; first compound 0.03162 µM): 1.01
- relative viability (Vemurafenib + Lapatinib; first compound 0.1 µM): 0.91
- relative viability (Vemurafenib + Lapatinib; first compound 0.3162 µM): 0.684
- relative viability (Vemurafenib + Lapatinib; first compound 1 µM): 0.98

Cell Line: COR-L 105
- relative viability (Alpelisib + Olaparib; first compound 0.04 µM): 0.706
- relative viability (Alpelisib + Olaparib; first compound 0.1265 µM): 0.646
- relative viability (Alpelisib + Olaparib; first compound 0.4 µM): 0.755
- relative viability (Alpelisib + Olaparib; first compound 1.265 µM): 0.686
- relative viability (Alpelisib + Olaparib; first compound 4 µM): 0.642
- relative viability (OSI-027 + Pictilisib; first compound 0.01 µM): 0.389
- relative viability (OSI-027 + Pictilisib; first compound 0.03162 µM): 0.453
- relative viability (OSI-027 + Pictilisib; first compound 0.1 µM): 0.358
- relative viability (OSI-027 + Pictilisib; first compound 0.3162 µM): 0.377
- relative viability (OSI-027 + Pictilisib; first compound 1 µM): 0.254
- relative viability (OSI-027 + Lapatinib; first compound 0.01 µM): 0.34
- relative viability (OSI-027 + Lapatinib; first compound 0.03162 µM): 0.356
- relative viability (OSI-027 + Lapatinib; first compound 0.1 µM): 0.336
- relative viability (OSI-027 + Lapatinib; first compound 0.3162 µM): 0.297
- relative viability (OSI-027 + Lapatinib; first compound 1 µM): 0.295
- relative viability (Vemurafenib + Lapatinib; first compound 0.03162 µM): 0.348
- relative viability (Vemurafenib + Lapatinib; first compound 0.3162 µM): 0.32
- relative viability (Vemurafenib + Lapatinib; first compound 1 µM): 0.373
